Results from US7709482B2, “Polycyclic heteroaryl substituted triazoles useful as Axl inhibitors” (Rigel Pharmaceuticals, Inc., priority 2006, dated 2010).

Each compound was assayed against T1, Axl (Homo sapiens, UniProt P30530) (assay: Phospho-Akt In-Cell Western Assay (inhibition of Axl activity after Axl-antibody cross-linking)). Settings: inhibition of Axl activity; Table 1, compounds of formula (Ia); read-out: IC50.
T1 construct: endogenous in cells; host or cells: HeLa cells
T1 sequence (P30530 26-894): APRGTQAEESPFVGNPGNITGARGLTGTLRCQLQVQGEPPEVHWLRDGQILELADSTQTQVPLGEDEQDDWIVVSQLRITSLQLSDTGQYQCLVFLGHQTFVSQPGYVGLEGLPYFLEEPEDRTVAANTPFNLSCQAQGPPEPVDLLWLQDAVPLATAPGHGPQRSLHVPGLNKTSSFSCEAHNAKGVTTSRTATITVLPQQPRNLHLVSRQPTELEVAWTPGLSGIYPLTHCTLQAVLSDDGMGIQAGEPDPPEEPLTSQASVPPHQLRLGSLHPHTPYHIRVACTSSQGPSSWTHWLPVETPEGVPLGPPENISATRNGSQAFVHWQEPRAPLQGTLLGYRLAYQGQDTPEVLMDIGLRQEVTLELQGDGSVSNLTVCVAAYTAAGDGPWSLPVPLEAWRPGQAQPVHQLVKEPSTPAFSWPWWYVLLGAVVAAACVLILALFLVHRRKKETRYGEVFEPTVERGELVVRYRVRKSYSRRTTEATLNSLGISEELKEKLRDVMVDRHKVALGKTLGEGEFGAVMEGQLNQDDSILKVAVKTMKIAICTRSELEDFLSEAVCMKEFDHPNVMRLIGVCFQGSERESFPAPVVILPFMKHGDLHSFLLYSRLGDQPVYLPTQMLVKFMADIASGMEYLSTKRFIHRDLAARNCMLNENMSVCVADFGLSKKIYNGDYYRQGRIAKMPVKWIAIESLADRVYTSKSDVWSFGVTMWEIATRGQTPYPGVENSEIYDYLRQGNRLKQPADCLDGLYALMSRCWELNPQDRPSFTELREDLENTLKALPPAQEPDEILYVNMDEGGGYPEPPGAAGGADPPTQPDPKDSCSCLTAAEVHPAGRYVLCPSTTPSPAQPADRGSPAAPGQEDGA
Type: cell-based
Method in brief: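 Phospho-Akt was detected in formaldehyde-fixed cells by in-cell immunostaining with HRP chemiluminescence. Before fixation, HeLa cells kept 24 h in low-serum medium containing 500 ng/mL Axl/Fc received compound for 1 h at 37 °C, followed by 5-min Axl activation through antibody clustering.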

`CN(C)[C@@H]1CCN(c2ccc(Nc3nc(N)n(-c4cc5c(nn4)-c4ccccc4CCC5)n3)cc2F)C1` [Compound 180, 1-(6,7-dihydro-5H-benzo[6,7]cyclohepta[1,2-c]pyridazin-3-yl)-N^3-(3-fluoro-4-(3-(3R)-dimethylaminopyrrolidin-1-yl)phenyl)-1H-1,2,4-triazole-3,5-diamine] and `CN(C)C1CCN(CC=Cc2ccc(Nc3nc(N)n(-c4cc5c(nn4)-c4ccccc4CCC5)n3)cc2)C1` (centres unmarked) [Compound 200, 1-(6,7-dihydro-5H-benzo[6,7]cyclohepta[1,2-c]pyridazin-3-yl)-N^3-(4-(3-dimethylaminopyrrolidin-1-ylprop-1-enyl)phenyl)-1H-1,2,4-triazole-3,5-diamine] cannot be ordered by IC50: under 1 µM for the first, under 1 µM for the second.

`CCN(CC)C1CCc2ccc(Nc3nc(N)n(-c4cc5c(nn4)-c4ccccc4CCC5)n3)cc2CC1` (centres unmarked) [Compound 185, 1-(6,7-dihydro-5H-benzo[6,7]cyclohepta[1,2-c]pyridazin-3-yl)-N^3-(7-diethylamino-6,7,8,9-tetrahydro-5H-benzo[7]annulene-2-yl)-1H-1,2,4-triazole-3,5-diamine] and `Nc1nc(Nc2ccc3c(c2)CCC(NC2CCCC2)CC3)nn1-c1cc2c(nn1)-c1ccccc1CCC2` (centres unmarked) [Compound 186, 1-(6,7-dihydro-5H-benzo[6,7]cyclohepta[1,2-c]pyridazin-3-yl)-N^3-(7-cyclopentylamino-6,7,8,9-tetrahydro-5H-benzo[7]annulene-2-yl)-1H-1,2,4-triazole-3,5-diamine] cannot be ordered by IC50: under 1 µM for the first, under 1 µM for the second.

First: Nc1nc(Nc2ccc(N3CCN(CC4CC4)CC3)nc2)nn1-c1cc2c(nn1)-c1ccccc1CCC2 [Compound 187, 1-(6,7-dihydro-5H-benzo[6,7]cyclohepta[1,2-c]pyridazin-3-yl)-N^3-(2-(4-cyclopropylmethylpiperazin-1-yl)pyridine-5-yl)-1H-1,2,4-triazole-3,5-diamine]
Second: C[C@H]1CN(c2ccc(Nc3nc(N)n(-c4cc5c(nn4)-c4ccccc4CCC5)n3)cn2)CCN1CC1CC1 [Compound 202, 1-(6,7-dihydro-5H-benzo[6,7]cyclohepta[1,2-c]pyridazin-3-yl)-N^3-(2-(3-(S)-methyl-4-cyclopropylmethylpiperazin-1-yl)pyridine-5-yl)-1H-1,2,4-triazole-3,5-diamine]
The IC50 of the first is higher: 1 to 10 µM for the first, under 1 µM for the second. The second is the more potent here.

`Nc1nc(Nc2cnc3c(c2)CC(N2CCCC2)CC3)nn1-c1cc2c(nn1)-c1ccccc1CCC2` (centres unmarked) [Compound 189, 1-(6,7-dihydro-5H-benzo[6,7]cyclohepta[1,2-c]pyridazin-3-yl)-N^3-(6-(pyrrolidin-1-yl)-5,6,7,8-tetrahydroquinolin-3-yl)-1H-1,2,4-triazole-3,5-diamine] and `Nc1nc(Nc2cnc3c(c2)CC[C@H](N2CCCC2)CC3)nn1-c1cc2c(nn1)-c1ccccc1CCC2` [Compound 191, 1-(6,7-dihydro-5H-benzo[6,7]cyclohepta[1,2-c]pyridazin-3-yl)-N^3-((S)-7-(pyrrolidin-1-yl)-6,7,8,9-tetrahydro-5H-cyclohepta[b]pyridine-3-yl)-1H-1,2,4-triazole-3,5-diamine] cannot be ordered by IC50: under 1 µM for the first, under 1 µM for the second.

`Nc1nc(Nc2cnc3c(c2)CN(C2CCCC2)CC3)nn1-c1cc2c(nn1)-c1ccccc1CCC2` [Compound 190, 1-(6,7-dihydro-5H-benzo[6,7]cyclohepta[1,2-c]pyridazin-3-yl)-N^3-(6-cyclopentyl-5,6,7,8-tetrahydro-1,6-naphthyridine-3-yl)-1H-1,2,4-triazole-3,5-diamine] and `Nc1nc(Nc2ccc(C=CCN3CCN(C4CCCC4)CC3)cc2)nn1-c1cc2c(nn1)-c1ccccc1CCC2` [Compound 206, 1-(6,7-dihydro-5H-benzo[6,7]cyclohepta[1,2-c]pyridazin-3-yl)-N^3-(4-(4-cyclopentylpiperazin-1-ylprop-1-enyl)phenyl)-1H-1,2,4-triazole-3,5-diamine] cannot be ordered by IC50: under 1 µM for the first, under 1 µM for the second.

Compared with `Nc1nc(Nc2ccc(N3CCN(C4CCCCC4)CC3)c(F)c2)nn1-c1cc(-c2ccccc2)c2c(n1)-c1ccccc1CCC2` [Compound 192, 1-(4-phenyl-6,7-dihydro-5H-benzo[6,7]cyclohepta[1,2-b]pyridin-2-yl)-N^3-(3-fluoro-4-(4-cyclohexylpiperazin-1-yl)phenyl)-1H-1,2,4-triazole-3,5-diamine], `CN1CCN(c2ccc(Nc3nc(N)n(-c4cc(-c5ccccc5)c5c(n4)-c4ccccc4CCC5)n3)cc2)CC1` [Compound 193, 1-(4-phenyl-6,7-dihydro-5H-benzo[6,7]cyclohepta[1,2-b]pyridin-2-yl)-N^3-(4-(4-methylpiperazin-1-yl)phenyl)-1H-1,2,4-triazole-3,5-diamine] is lower in IC50: 10 to 20 µM for the first, 1 to 10 µM for the second. The second is the more potent here.

First: COC(=O)[C@@H]1CCCN1C1CCc2ccc(Nc3nc(N)n(-c4cc5c(nn4)-c4ccccc4CCC5)n3)cc2CC1 (stereo partly drawn) [Compound 194, 1-(6,7-dihydro-5H-benzo[6,7]cyclohepta[1,2-c]pyridazin-3-yl)-N^3-((7-(2-(S)-methyloxycarbonyl)pyrrolidin-1-yl)-6,7,8,9-tetrahydro-5H-benzo[7]annulene-2-yl)-1H-1,2,4-triazole-3,5-diamine]
Second: Nc1nc(Nc2ccc3c(c2)CCC(N2CCC[C@H]2C(=O)O)CC3)nn1-c1cc2c(nn1)-c1ccccc1CCC2 (stereo partly drawn) [Compound 195, 1-(6,7-dihydro-5H-benzo[6,7]cyclohepta[1,2-c]pyridazin-3-yl)-N^3-((7-(2-(S)-carboxy)pyrrolidin-1-yl)-6,7,8,9-tetrahydro-5H-benzo[7]annulene-2-yl)-1H-1,2,4-triazole-3,5-diamine]
The IC50 of the first is lower: under 1 µM for the first, 1 to 10 µM for the second.

`CN1CCN(C2CCN(CC=Cc3ccc(Nc4nc(N)n(-c5cc6c(nn5)-c5ccccc5CCC6)n4)cc3)CC2)CC1` [Compound 196, 1-(6,7-dihydro-5H-benzo[6,7]cyclohepta[1,2-c]pyridazin-3-yl)-N^3-(4-(4-(4-methylpiperazin-1-yl)piperidin-1-ylprop-1-enyl)phenyl)-1H-1,2,4-triazole-3,5-diamine] and `Nc1nc(Nc2ccc(C=CCN3CCC(N4CCCC4)CC3)cc2)nn1-c1cc2c(nn1)-c1ccccc1CCC2` [Compound 203, 1-(6,7-dihydro-5H-benzo[6,7]cyclohepta[1,2-c]pyridazin-3-yl)-N^3-(4-(4-pyrrolidin-1-ylpiperidin-1-ylprop-1-enyl)phenyl)-1H-1,2,4-triazole-3,5-diamine] cannot be ordered by IC50: under 1 µM for the first, under 1 µM for the second.

First: Nc1nc(Nc2ccc(C=CCN3CCC(N4CCCCC4)CC3)cc2)nn1-c1cc2c(nn1)-c1ccccc1CCC2 [Compound 197, 1-(6,7-dihydro-5H-benzo[6,7]cyclohepta[1,2-c]pyridazin-3-yl)-N^3-(4-(4-(piperidin-1-yl)piperidin-1-ylprop-1-enyl)phenyl)-1H-1,2,4-triazole-3,5-diamine]
Second: Nc1nc(Nc2ccc(C=CCN3CCCCC3)cc2)nn1-c1cc2c(nn1)-c1ccccc1CCC2 [Compound 198, 1-(6,7-dihydro-5H-benzo[6,7]cyclohepta[1,2-c]pyridazin-3-yl)-N^3-(4-(piperidin-1-ylprop-1-enyl)phenyl)-1H-1,2,4-triazole-3,5-diamine]
The IC50 of the first is higher: 1 to 10 µM for the first, under 1 µM for the second.

`Nc1nc(Nc2ccc(C=CCN3CCCC3)cc2)nn1-c1cc2c(nn1)-c1ccccc1CCC2` [Compound 199, 1-(6,7-dihydro-5H-benzo[6,7]cyclohepta[1,2-c]pyridazin-3-yl)-N^3-(4-(pyrrolidin-1-ylprop-1-enyl)phenyl)-1H-1,2,4-triazole-3,5-diamine] and `Nc1nc(Nc2ccc(C=CCN3CCOCC3)cc2)nn1-c1cc2c(nn1)-c1ccccc1CCC2` [Compound 207, 1-(6,7-dihydro-5H-benzo[6,7]cyclohepta[1,2-c]pyridazin-3-yl)-N^3-(4-(morpholin-4-ylprop-1-enyl)phenyl)-1H-1,2,4-triazole-3,5-diamine] cannot be ordered by IC50: under 1 µM for the first, under 1 µM for the second.

`CCN(CC)C1CCN(CC=Cc2ccc(Nc3nc(N)n(-c4cc5c(nn4)-c4ccccc4CCC5)n3)cc2)C1` (centres unmarked) [Compound 201, 1-(6,7-dihydro-5H-benzo[6,7]cyclohepta[1,2-c]pyridazin-3-yl)-N^3-(4-(3-diethylaminopyrrolidin-1-ylprop-1-enyl)phenyl)-1H-1,2,4-triazole-3,5-diamine] and `CN1CCN(CC=Cc2ccc(Nc3nc(N)n(-c4cc5c(nn4)-c4ccccc4CCC5)n3)cc2)CC1` [Compound 204, 1-(6,7-dihydro-5H-benzo[6,7]cyclohepta[1,2-c]pyridazin-3-yl)-N^3-(4-(4-methylpiperazin-1-ylprop-1-enyl)phenyl)-1H-1,2,4-triazole-3,5-diamine] cannot be ordered by IC50: under 1 µM for the first, under 1 µM for the second.

`CC(C)N1CCN(CC=Cc2ccc(Nc3nc(N)n(-c4cc5c(nn4)-c4ccccc4CCC5)n3)cc2)CC1` [Compound 205, 1-(6,7-dihydro-5H-benzo[6,7]cyclohepta[1,2-c]pyridazin-3-yl)-N^3-(4-(4-isopropylpiperazin-1-ylprop-1-enyl)phenyl)-1H-1,2,4-triazole-3,5-diamine] showed an IC50 of under 1 µM.
